Measurements taken from patent US20230234936A1, “COMPOUND FOR TARGETING AND DEGRADING PROTEIN, AND PREPARATION METHOD THEREFOR AND USE THEREOF” (SHANGHAI LEADINGTAC PHARMACEUTICAL CO., LTD., priority 2020, published 2023).

Legend:
[1] = biological target: T1, IRAK4 protein in THP-1 cells (Homo sapiens, UniProt Q9NWZ3); test: Degradation of IRAK4 in THP-1 cells (Western blot); format: cell-based; conditions: 24 hours, compound 1-3000 nM
T1 construct: endogenous in cells; host or cells: THP-1
T1 sequence (Q9NWZ3 1-460): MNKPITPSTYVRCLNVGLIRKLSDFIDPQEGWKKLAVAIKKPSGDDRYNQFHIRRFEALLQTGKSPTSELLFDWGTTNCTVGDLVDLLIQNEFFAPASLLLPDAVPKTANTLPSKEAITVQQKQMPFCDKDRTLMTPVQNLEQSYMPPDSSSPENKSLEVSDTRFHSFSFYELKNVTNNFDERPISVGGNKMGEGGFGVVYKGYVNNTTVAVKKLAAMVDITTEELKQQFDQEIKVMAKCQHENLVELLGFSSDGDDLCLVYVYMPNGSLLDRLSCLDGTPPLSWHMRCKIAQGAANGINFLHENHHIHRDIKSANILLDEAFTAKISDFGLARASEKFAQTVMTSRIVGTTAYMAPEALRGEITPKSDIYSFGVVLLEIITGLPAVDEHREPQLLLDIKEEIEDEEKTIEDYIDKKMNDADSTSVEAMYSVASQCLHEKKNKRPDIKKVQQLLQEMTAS
In short: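 THP-1 cells (5×10^5/well) treated 24 h with compound at 1–3000 nM final. IRAK4 in lysates quantified by Western blot, normalized to internal reference and compared with control to give degradation rate; DC50 and Dmax from nonlinear fit of log concentration.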

[2] = test system: Interleukin-6 (IL-6) in LPS-induced human PBMC; test: Cytokine secretion of LPS-induced human PBMC, IL-6 AlphaLISA detection; format: cell-based; conditions: inhibition of IL-6, compound 1 hour or 20 hours, then LPS 100 ng/mL 5 hours
Method: Frozen human PBMC (Milestone, PB010C) was resuspended to RPMI 1640 medium (Gibco, A1049101) after resuscitation, supplemented with 10% fetal bovine serum (Gibco, 10099141), 100 U/mL penicillin and 100 μg/mL streptomycin (Gibco, 15140122). On the same day, 150 μL of PBMC was spread in each well of a 96-well transparent cell plate (Labserv, 310109008), so that the cell density was 2×10^5 cells/well. Then 50 μL diluted compound solution was added to the corresponding cell-covered wells to make the final concentration of the compound in the range of 0.026-10000 nM. The final concentration of DMSO was 0.25%. After the drug-treated cell plate was cultured at 37° C. for 1 hour or 20 hours in a 5% CO2 incubator, 10 μL LPS (0111:B4) (Sigma, L4391) was added with a final concentration of 100 ng/mL. The cell plate was again placed in a 5% CO2 incubator at 37° C. for 5 hours, centrifuged at 2000 rpm for 10 minutes, and 100 μL cell supernatant was taken from each well and transferred to a new 96-well transparent cell plate for cytokine concentration test, which was frozen at −80° C. to be tested.
The concentration of IL-6 in the supernatant of LPS-induced human PBMC cells was determined using interleukin-6 (IL-6) AlphaLISA detection kit (PerkinElmer, AL223 C).
According to the product instructions, IL-6 standard solutions with different concentrations were prepared in the concentration range of […]. 2 μL of IL-6 standard solution at various concentrations and the cell supernatant sample to be tested were taken, respectively added to white 384 well plates (PerkinElmer, 6007299), then a mixed solution of 8 μL of 5× anti-IL-6 receptor beads (final concentration: 10 μg/mL) and biotin-labeled anti-IL-6 antibody (final concentration 1 nM) was added to each well, and incubated at 23° C. for 60 minutes. Finally, 10 μL of 2× streptavidin-labeled donor beads (final concentration: 40 μg/mL) were added to each well and incubated at 23° C. for 30 minutes in the absent of light. After the incubation, the AlphaLISA signal value was determined in the AlphaScreen standard setting mode on the microplate reader EnVision(PerkinElmer, 2105). The standard curve was drawn by the AlphaLISA signal value of each concentration IL-6 standard solution, and then based on the corresponding concentration on the standard curve for the AlphaLISA signal value of the sample to be tested, the IL-6 concentration of each cell lysis supernatant was determined. Compared with the IL-6 concentration of the control group, the inhibition rate of the compound at each concentration was calculated, and then IC50 value of the compound was calculated by fitting the nonlinear curve with the logarithmic concentration-inhibition rate by GraphPad Prism 7.

IRAK4 kinase = biological target: T2, IRAK4 kinase (Homo sapiens, UniProt Q9NWZ3); test: IRAK4 kinase activity test (KinEASE-STK S1 HTRF kit); format: biochemical; conditions: 2.5 nM kinase, 1 μM biotinylated polypeptide substrate, 7 μM ATP, 37° C. 120 min
T2 sequence (Q9NWZ3 1-460): T1 sequence (Q9NWZ3 1-460)
In short: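 Compound in DMSO, serially diluted to 10000–0.038 nM final, incubated with 2.5 nM kinase, 1 μM biotinylated peptide substrate and 7 μM ATP at 37° C for 120 min. Eu-anti-phospho-Ser/Thr antibody plus streptavidin-XL665 stopped the reaction (1 h RT). HTRF 665/620 nm ratio gave % inhibition versus control; IC50 from nonlinear log-concentration fit.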

Row | SMILES | DC50 [1] | Dmax [1] | IC50 (IRAK4 kinase) | IC50 [2]
1 | COc1cc2nn(C3CCN(CCN4CCC5(CC4)CCN(C(=O)c4ccc(OC)c(N6CCC(=O)NC6=O)c4)CC5)CC3)cc2cc1NC(=O)c1cccc(C(F)(F)F)n1 [Example 1, N-(2-(1-(2-(9-(3-(2,4-dioxotetrahydropyrimidin-1 (2H)-yl)-4-methoxybenzoyl)-3,9-diazaspiro[5.5]undec-3-yl)ethyl)piperidin-4-yl)-6-methoxy-2H-indazol-5-yl)-6-(trifluoromethyl)-2-pyridinecarboxamide] | 3 nM | 94.6% | 2.5 nM | 4.9 nM
2 | CC(C)(O)c1cc2nn(C3CCN(CCC4CCC5(CC4)CCN(C(=O)c4ccc(Cl)c(N6CCC(=O)NC6=O)c4)CC5)CC3)cc2cc1NC(=O)c1cccc(C(F)(F)F)n1 [Example 28, N-(2-(1-(2-(3-(4-chloro-3-(2,4-dioxotetrahydro-pyrimidin-1 (2H)-yl)benzoyl)-3-azaspiro [5.5]undec-9-yl)ethyl)piperidin-4-yl)-6-(2-hydroxyprop-2-yl)-2H-indazol-5-yl)-6-(trifluoro-methyl) pyridinecarbox-amide] | 0.8 nM | 99.4% | 16.2 nM | 4.7 nM
3 | COc1cc2nn(C3CCN(CC4CCC5(CC4)CCN(C(=O)c4ccc(Cl)c(N6CCC(=O)NC6=O)c4)CC5)CC3)cc2cc1NC(=O)c1cccc(C(F)(F)F)n1 [Example 32] | 5.1 nM | 96.9% | 28.5 nM | 9.7 nM
4 | CC(C)(O)c1cc2nn(C3CCN(CC4CCC5(CC4)CCN(C(=O)c4ccc(F)c(C6CCC(=O)NC6=O)c4)CC5)CC3)cc2cc1NC(=O)c1cccc(C(F)(F)F)n1 (stereo not drawn) [Example 41, N-(2-(1-((3-(3-(2,6-dioxopiperidin-3-yl)-4-fluoro-benzoyl)-3-azaspiro [5.5]undec-9-yl)methyl)piperidin-4-yl)-6-(2-hydroxyprop-2-yl)-2H-inda-zol-5-yl)-6-(triflu-oromethyl) pyridinecarbox-amide] | 2.9 nM | 97.7% | 28.1 nM | 5.1 nM
5 | COc1cc2nn([C@H]3CC[C@H](CN(C)CCC4CCN(C(=O)c5ccc(Cl)c(N6CCC(=O)NC6=O)c5)CC4)CC3)cc2cc1NC(=O)c1cccc(C(F)(F)F)n1 [Example 49, N-(2-((1r,4r)-4-(((2-(1-(4-chloro-3-(2,4-dioxotetrahydro-pyrimidin-1 (2H)-yl)benzoyl)piperidin-4-yl)ethyl) (methyl)amino)methyl)cyclohexyl)-6-methoxy-2H-inda-zol-5-yl)-6-(tri-fluoromethyl) pyridinecarbox-amide] | 1.8 nM | 99.2% | 3.4 nM | 3.7 nM

Now from value to compound, other results behind:

Row | DC50 [1] | Dmax [1] | IC50 (IRAK4 kinase) | SMILES | IC50 [2]
6 | 5.9 nM | 96.3% | 6.3 nM | COc1cc2nn([C@H]3CC[C@H](CN(C)C4CCC5(CC4)CCN(C(=O)c4ccc(Cl)c(N6CCC(=O)NC6=O)c4)CC5)CC3)cc2cc1NC(=O)c1cccc(C(F)(F)F)n1 [Example 53, N-(2-((1r,4r)-4-(((3-(4-chloo-3-(2,4-dioxotetrahydro-pyrimidin-1 (2H)-yl)benzoyl)-3-azaspiro [5.5]undec-9-yl) (methyl)amino)methyl)cyclohexyl)-6-methoxy-2H-inda-zol-5-yl)-6-(triflu-oromethyl) pyridinecarbox-amide] | 2.8 nM
7 | 1.4 nM | 98.9% | 7.5 nM | COc1cc2nn([C@H]3CC[C@H](CCN4CCC5(CC4)CCN(C(=O)c4ccc(Cl)c(N6CCC(=O)NC6=O)c4)CC5)CC3)cc2cc1NC(=O)c1cccc(C(F)(F)F)n1 [Example 54, N-(2-((1r,4r)-4-(2-(9-(4-chloro-3-(2,4-dioxo-tetrahydropyrim-idin-1 (2H)-yl)benzoyl)-3,9-diazaspiro[5.5]undec-3-yl)ethyl)cyclohexyl)-6-methoxy-2H-inda-zol-5-yl)-6-(tri-fluoromethyl) pyridinecarbox-amide] | 2.6 nM
8 | 2.7 nM | 98.1% | 10.6 nM | CN(CCC1CCN(C(=O)c2ccc(Cl)c(N3CCC(=O)NC3=O)c2)CC1)C[C@H]1CC[C@H](n2cc3cc(NC(=O)c4cccc(C(F)(F)F)n4)c(C(C)(C)O)cc3n2)CC1 [Example 55, N-(2-((1r,4r)-4-(((2-(1-(4-chloro-3-(2,4-dioxotetrahydro-pyrimidin-1 (2H)-yl)benzoyl)piperidin-4-yl)ethyl) (methyl)amino)methyl)cyclohexyl)-6-(2-hydroxyprop-2-yl)-2H-indazol-5-yl)-6-(trifluoro-methyl) pyridinecarbox-amide] | 0.8 nM
9 | 3 nM | 97% | 3.6 nM | COc1cc2nn([C@H]3CC[C@H](N(C)C4CCC5(CC4)CCN(C(=O)c4ccc(Cl)c(N6CCC(=O)NC6=O)c4)CC5)CC3)cc2cc1NC(=O)c1cccc(C(F)(F)F)n1 [Example 56] | 3.2 nM
